Assay results as given in patent US4510150A, “Pharmaceutical compositions effective against coronary heart disease and hypertension” (Sandoz Ltd., priority 1980, dated 1985).

Key:
[1] = tested on: paced guinea pig left atrium; experiment: contractility of paced guinea pig left atria in vitro; assay type: cell-based; details: for difference between cardiodepressant concentration and the pA2 of Ca-antagonism: guinea pig atria concentration vs dog coronary artery pA2
Experimental: (§1) Then the effects on contractility of paced guinea pig left […] in vitro was measured:
(§2) Guinea pigs of either sex weighing 250 to 400 g were killed by a blow on their heads and the left atrium was rapidly dissected from the heart and suspended in a modified oxygenated Tyrode solution at 30° C. The preload was adjusted to 1 g, rectangular impulses of 10 msec. at a rate of 1 Hz were used for pacing through a platinum cathode attached to the lower end of the tissue. The tension developed was measured isometrically with a Statham UC 3 transducer.

[2] = biological target: T1, paced guinea pig left atrium (Cavia porcellus, UniProt O35505); experiment: as above; assay type: cell-based; details: guinea pig; highest dose 0.444 μM; paced 1 Hz, 30° C.; read-out: contractile force, % of its baseline value
T1 construct: the left atrium was rapidly dissected from the heart and suspended in a modified oxygenated Tyrode solution; from tissue; host or cells: isolated left atrium of guinea pig
Experimental: as §1, §2

[3] = biological target: T2, calcium-induced contraction of isolated dog coronary arteries (Canis lupus familiaris, UniProt A0A8I3QY31); experiment: calcium antagonism: calcium-induced contraction of isolated dog coronary arteries in depolarizing solution; assay type: cell-based; details: helical strips of dog coronary artery, 100 mM KCl solution, cumulative CaCl2 response curves, drug added 30 min before CaCl2; read-out: pA2 of calcium antagonism (converted)
T2 construct: Branches of the ventral interventricular artery (about 500 to 1000 μm outer diameter) were dissected and cut into helical strips; from tissue; host or cells: helical strips of branches of the ventral interventricular (coronary) artery of mongrel dogs
Experimental: First the potency of calcium antagonism was determined on coronary arteries in vitro:
Mongrel dogs of either sex weighing between 15 and 30 kg were anaesthetized by rapid i.v. injection of pentobarbitone (50 mg/kg) and killed by i.v. injection of 100 ml of air. The heart was removed and placed in a modified Krebs-Henseleit solution (mM): NaCl 118, KCl 4.7, MgSo4 1.2, CaCl2 2.5, KH2 PO4 1.2, NaHCO3 25, glucose 11, at 37° C., gassed with 95% O2 -5% CO2. Branches of the ventral interventricular artery (about 500 to 1000 μm outer diameter) were dissected and cut into helical strips, approximately 1 to 3 mm wide and 10 mm long.
The strips were suspended in 10 ml organ baths containing Krebs-Henseleit solution at 37° C. gassed continuously with 5% CO2 in oxygen. Changes in the tension of the strips were recorded isometrically with electromechanical transducers (Statham model UC 3) and a potentiometric recorder. At the beginning of the experiments the strips were stretched to an initial tension of 500 mg and then allowed to equilibrate for 120 to 180 minutes in the bathing medium. Thereafter the Krebs-Henseleit solution was replaced by a solution containing 100 mM KCl in equimolar replacement for NaCl. Cumulative response curves for CaCl2 were established, using the method described by Van Rossum, J. M., Arch. […] The effects were expressed as percentage of the preceding response to […]. […]

[4] = tested on: anaesthetized open chest cat; experiment: hemodynamics in the anaesthetized open chest cat (microsphere method); assay type: in vivo
Experimental: This observation was arrived at in the anaesthetized open chest cat as follows:
The microsphere method as described in 1967 by Rudolph, A. M. and Heymann, M. S. in Circ. Res. 21 (1967) 163 and modified by R. P. Hof, F. Wyler and G. Stalder, Basic Res. Cardial. 75, 747-756 (1980) was used. Cardiac output was calculated from the flow signal of an electromagnetic flow meter. […] This consists in sampling blood at a known flow rate into a syringe, which can be regarded as "an external organ".
This sampling is done during the time of microsphere circulation. The number of microspheres in the syringe is then determined and cardiac output can be calculated as follows:
where CO is cardiac output, Qs is flow to the syringe, Ni is the number of spheres injected and Ns is the number of spheres in the syringe.
Cats of 2 to 4 kg of body weight were anaesthetized with chloralose urethane (43 and 430 mg/kg) and ventilated with a Loosco M.K.II infant ventilator with positive end-expiratory pressure. Catheters were inserted into the femoral artery and vein. […] The electromagnetic flow signal and its first derivative, acceleration of the blood in the aorta, mean aortic flow, phasic and mean aortic blood pressure, heart rate and mean right atrial pressure were recorded on a Beckmann R612 8 channel recorder. […] The samples were counted in a Packard Mod. […]

[5] = tested on: β-adrenoceptor; experiment: adequacy of betablockade checked with isoproterenol test dose in the anaesthetized open chest cat; assay type: in vivo; details: LT 50 μg/kg i.v.; isoproterenol 0.05 μg/kg before, 0.1 μg/kg after betablockade
Experimental: Cats of 2 to 4 kg of body weight were anaesthetized with chloralose urethane (43 and 430 mg/kg) and ventilated with a Loosco M.K.II infant ventilator with positive end-expiratory pressure. Catheters were inserted into the femoral artery and vein. The thorax was opened through the left fourth intercostal space, the aorta was freed of its adventitia and an electromagnetic flow probe was placed around it. The electromagnetic flow signal and its first derivative, acceleration of the blood in the aorta, mean aortic flow, phasic and mean aortic blood pressure, heart rate and mean right atrial pressure were recorded on a Beckmann R612 8 channel recorder. For flow measurements a Narco RT500 flowmeter was used. Differentiation was performed by a HSE 401 differentiator. The flow signal, which is a measurement of the velocity of blood in the aortic root was electronically integrated to obtain mean aortic flow. At the same time this signal was fed into the differentiator mentioned. The output of the differentiator, acceleration of blood in the aorta, is an indicator of myocardial function and was used instead of dp/dt (R. R. Rushmer, Circulation 29 [1964] 268, G. C. Van den Bos et al., Cardiovascular Research 7 [1973] 834), applied to cats by R. P. Hof and A. Hof, Journal of Pharmacological Methods, accepted for publication in 1981. […] The samples were counted in a Packard Mod. […]

T2 sequence (A0A8I3QY31 1-2188): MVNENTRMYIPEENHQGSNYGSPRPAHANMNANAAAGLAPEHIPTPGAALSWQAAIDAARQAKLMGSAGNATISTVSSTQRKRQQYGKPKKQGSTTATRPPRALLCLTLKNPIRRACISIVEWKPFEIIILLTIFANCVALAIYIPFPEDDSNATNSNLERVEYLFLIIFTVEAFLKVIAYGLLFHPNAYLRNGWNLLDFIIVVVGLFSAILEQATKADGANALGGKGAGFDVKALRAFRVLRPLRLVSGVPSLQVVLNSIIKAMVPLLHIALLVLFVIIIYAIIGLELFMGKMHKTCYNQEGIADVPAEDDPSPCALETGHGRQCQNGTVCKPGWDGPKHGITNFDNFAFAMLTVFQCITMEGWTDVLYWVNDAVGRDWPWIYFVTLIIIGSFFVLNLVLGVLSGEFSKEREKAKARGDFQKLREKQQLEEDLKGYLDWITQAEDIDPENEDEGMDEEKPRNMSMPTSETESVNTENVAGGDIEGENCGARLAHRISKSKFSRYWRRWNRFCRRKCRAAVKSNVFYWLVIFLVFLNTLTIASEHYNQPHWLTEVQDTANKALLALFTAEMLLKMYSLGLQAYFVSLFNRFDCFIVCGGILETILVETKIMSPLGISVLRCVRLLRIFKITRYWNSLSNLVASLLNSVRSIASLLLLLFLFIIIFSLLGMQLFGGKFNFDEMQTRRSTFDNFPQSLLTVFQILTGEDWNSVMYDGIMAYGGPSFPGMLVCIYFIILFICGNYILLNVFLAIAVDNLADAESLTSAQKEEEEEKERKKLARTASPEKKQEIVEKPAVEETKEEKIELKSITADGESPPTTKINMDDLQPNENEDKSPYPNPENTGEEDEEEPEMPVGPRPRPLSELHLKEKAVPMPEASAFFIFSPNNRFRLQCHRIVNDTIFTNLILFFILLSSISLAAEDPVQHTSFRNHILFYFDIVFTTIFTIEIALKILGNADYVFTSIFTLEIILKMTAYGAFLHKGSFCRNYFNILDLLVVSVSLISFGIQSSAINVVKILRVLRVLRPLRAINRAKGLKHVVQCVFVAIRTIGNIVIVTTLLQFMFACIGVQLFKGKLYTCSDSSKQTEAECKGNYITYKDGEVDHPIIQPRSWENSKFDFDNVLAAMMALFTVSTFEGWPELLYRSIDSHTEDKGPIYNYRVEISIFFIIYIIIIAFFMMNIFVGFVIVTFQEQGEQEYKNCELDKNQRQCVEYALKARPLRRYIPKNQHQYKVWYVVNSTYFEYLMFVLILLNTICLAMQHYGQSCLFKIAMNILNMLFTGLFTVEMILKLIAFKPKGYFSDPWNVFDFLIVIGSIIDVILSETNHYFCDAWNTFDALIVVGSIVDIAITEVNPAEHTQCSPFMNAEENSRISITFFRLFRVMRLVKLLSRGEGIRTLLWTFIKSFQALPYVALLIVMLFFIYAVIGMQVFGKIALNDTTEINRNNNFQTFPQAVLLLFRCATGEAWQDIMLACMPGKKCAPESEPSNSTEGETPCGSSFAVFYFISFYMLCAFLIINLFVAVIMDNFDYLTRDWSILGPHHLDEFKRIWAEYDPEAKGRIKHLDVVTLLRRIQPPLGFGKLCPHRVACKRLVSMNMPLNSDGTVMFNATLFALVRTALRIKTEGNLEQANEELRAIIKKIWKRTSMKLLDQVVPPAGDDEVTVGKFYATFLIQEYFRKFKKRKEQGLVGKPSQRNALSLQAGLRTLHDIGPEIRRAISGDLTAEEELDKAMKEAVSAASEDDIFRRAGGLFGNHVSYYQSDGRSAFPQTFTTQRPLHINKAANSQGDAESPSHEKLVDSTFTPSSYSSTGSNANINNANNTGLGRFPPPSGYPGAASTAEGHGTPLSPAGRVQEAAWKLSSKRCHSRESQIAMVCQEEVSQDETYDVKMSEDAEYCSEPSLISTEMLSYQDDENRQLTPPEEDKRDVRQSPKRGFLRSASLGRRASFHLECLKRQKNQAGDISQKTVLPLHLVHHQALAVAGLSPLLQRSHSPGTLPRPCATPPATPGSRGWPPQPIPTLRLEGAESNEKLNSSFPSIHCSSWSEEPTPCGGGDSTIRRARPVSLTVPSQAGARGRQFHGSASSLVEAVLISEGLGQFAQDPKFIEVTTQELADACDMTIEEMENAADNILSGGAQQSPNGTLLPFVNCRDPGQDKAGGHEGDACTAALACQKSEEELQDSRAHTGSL
T1 sequence (O35505 whole entry): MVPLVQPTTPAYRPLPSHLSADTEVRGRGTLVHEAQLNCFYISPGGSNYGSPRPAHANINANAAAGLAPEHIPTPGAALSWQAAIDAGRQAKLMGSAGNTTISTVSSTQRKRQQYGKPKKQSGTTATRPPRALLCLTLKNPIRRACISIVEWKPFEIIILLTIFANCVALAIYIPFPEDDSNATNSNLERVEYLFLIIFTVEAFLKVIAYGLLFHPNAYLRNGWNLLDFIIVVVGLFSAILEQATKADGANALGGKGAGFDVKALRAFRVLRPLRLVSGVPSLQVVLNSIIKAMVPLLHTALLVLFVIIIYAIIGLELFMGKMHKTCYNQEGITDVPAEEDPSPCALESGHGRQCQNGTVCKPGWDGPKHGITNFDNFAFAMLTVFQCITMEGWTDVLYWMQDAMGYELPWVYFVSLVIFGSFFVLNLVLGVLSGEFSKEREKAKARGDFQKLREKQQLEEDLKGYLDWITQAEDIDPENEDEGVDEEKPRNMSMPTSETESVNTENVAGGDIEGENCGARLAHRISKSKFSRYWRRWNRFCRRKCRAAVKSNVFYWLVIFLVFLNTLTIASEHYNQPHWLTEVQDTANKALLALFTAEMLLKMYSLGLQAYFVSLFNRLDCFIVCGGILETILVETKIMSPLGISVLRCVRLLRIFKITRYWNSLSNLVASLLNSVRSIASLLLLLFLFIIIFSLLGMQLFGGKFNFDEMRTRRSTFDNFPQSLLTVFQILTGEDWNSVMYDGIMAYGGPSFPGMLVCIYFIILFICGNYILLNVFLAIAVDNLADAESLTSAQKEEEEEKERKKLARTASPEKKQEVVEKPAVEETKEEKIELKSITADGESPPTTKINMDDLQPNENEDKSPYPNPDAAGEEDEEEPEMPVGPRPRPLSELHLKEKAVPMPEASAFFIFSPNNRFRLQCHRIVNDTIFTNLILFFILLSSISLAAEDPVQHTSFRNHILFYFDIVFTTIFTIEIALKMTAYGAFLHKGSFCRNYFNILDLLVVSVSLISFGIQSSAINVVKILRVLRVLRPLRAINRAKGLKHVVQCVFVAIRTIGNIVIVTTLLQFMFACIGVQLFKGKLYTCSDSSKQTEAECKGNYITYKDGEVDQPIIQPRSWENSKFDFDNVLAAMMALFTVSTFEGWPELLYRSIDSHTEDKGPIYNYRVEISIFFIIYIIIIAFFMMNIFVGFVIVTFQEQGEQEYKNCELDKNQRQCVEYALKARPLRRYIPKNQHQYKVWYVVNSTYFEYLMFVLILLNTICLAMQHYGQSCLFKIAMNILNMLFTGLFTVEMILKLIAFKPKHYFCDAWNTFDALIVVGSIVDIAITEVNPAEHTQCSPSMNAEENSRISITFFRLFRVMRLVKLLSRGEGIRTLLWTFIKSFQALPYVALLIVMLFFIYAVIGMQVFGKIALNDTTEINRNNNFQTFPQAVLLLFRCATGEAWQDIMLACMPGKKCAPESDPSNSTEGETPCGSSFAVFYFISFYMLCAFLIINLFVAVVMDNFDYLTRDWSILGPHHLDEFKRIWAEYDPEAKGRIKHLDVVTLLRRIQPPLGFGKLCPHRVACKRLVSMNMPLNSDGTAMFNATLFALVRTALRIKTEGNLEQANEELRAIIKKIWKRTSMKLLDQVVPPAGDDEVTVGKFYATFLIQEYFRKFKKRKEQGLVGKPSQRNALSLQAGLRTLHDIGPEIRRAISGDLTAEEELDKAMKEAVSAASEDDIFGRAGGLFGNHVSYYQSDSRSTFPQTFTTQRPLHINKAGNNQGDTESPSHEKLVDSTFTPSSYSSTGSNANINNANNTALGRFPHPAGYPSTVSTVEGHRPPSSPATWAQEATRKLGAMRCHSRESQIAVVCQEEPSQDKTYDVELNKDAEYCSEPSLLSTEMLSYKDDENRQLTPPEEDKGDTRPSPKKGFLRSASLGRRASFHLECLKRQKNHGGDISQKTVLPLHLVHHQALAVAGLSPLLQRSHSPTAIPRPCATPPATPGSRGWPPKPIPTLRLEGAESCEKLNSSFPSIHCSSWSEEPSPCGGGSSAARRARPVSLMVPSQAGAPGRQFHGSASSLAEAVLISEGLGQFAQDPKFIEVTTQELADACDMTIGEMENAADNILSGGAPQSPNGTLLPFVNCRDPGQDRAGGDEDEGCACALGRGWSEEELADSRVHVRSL

CCOC(=O)C1=C(C)NC(C)=C(C(=O)OCC)C1c1cccc2nonc12 [compound No. 22]
difference between cardiodepressant concentration and the pA2 of Ca-antagonism [1]: about 10,000 fold | times less cardiodepressant than Verapamil for a similar degree of calcium antagonism ([1]; relative to Verapamil): about 100 times | activity at 0.444 µM [2]: 56% | Kb [3]: 0.0316 nM | coronary blood flow ([4]; 43 μg/kg i.v., no pretreatment): markedly increased | general hemodynamic parameters (acceleration of blood, cardiac output, heart rate, coronary flow) after β-blocker pretreatment ([4]; compound No. 22 43 μg/kg i.v., 60 minutes after LT 50 μg/kg i.v.): strikingly similar to those without pretreatment

COc1ccc(CCN(C)CCCC(C#N)(c2ccc(OC)c(OC)c2)C(C)C)cc1OC (stereo not drawn) [Verapamil, reference compound]
difference between cardiodepressant concentration and the pA2 of Ca-antagonism [1]: about 100 fold | Kb [3]: 15.8 nM

Cc1cc2c(OCC(CNC(C)(C)C)OC(=O)c3ccccc3)cccc2[nH]1 (stereo not drawn) [LT, 4-(2-benzoyloxy-3-tert-butylaminopropoxy)-2-methylindole]
suppression of isoproterenol effects [5]: completely or almost completely suppressed
